*1 amine or outer side, *2 acyl side, *3 side chain or, on linkers, in order; H or OH if unused. Where a SMILES comes first, the peptide text is derived from it. Bridges are numbered along the chain shown (N, C = ends). The star is where a group is joined. X1 = NC(=O)Cc1cc(=O)oc2cc(NC(=O)[C@@H]3CCCN3C(=O)Cn3nc(C[*:1])cc3C[*:2])ccc12; X2 = NC(=O)Cc1cc(=O)oc2cc(NC(=O)[C@@H]3CCCN3C(=O)Cn3nc(C[*:2])cc3C[*:1])ccc12; AMC = Cc1cc(=O)oc2cc(N*)ccc12
How the values were obtained:
Recombinant Human DPP9 = target: T1, Recombinant Human DPP9 (Homo sapiens, UniProt Q86TI2); assay: Kinetic evaluation of substrates; type: biochemical; details: for SI (selectivity index, coefficient of the proteases kcat/Km), FAPα vs DPP9: kcat/KM FAPα over kcat/KM DPP9
T1 construct: purchased R&D Systems 5419-SE-010
T1 sequence (Q86TI2 whole entry): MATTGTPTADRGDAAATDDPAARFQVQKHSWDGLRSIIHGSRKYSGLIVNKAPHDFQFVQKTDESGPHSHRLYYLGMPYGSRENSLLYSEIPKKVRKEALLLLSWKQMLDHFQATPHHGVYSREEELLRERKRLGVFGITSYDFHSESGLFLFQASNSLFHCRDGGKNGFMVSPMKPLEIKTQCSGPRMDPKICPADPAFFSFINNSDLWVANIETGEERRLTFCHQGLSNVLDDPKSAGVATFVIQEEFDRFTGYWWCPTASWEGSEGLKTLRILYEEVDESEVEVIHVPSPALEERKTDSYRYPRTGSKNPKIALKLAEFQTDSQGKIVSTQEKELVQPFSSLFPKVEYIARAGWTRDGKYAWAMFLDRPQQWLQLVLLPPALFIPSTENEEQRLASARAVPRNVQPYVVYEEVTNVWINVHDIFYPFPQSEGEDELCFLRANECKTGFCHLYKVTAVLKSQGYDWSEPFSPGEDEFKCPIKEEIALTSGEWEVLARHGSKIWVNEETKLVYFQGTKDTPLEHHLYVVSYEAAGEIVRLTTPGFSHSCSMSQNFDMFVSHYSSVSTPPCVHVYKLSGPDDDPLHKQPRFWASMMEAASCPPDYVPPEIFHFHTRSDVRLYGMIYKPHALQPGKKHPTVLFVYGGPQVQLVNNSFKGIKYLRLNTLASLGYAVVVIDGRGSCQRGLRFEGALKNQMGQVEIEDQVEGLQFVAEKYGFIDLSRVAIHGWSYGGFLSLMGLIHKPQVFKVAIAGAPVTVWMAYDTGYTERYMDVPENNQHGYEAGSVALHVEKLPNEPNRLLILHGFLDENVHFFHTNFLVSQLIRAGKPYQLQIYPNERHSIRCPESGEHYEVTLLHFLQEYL
Method: (§1) Fluorogenic Substrate Cleavage Assay
(§2) The following proteases were used for the activity assay: Recombinant Human FAPα Protein, CF (R&D Systems, Catalog No.: 3715-SE-010), Recombinant Human Prolyl Oligopeptidase/PREP Protein, CF (R&D Systems, Catalog No.: 4308-SE-010). Recombinant Human DPP9 Protein, CF (R&D Systems, Catalog No.: 5419-SE-010). Recombinant Human DPP4 Protein (Sino Biological, Catalog No.: 10688-HNCH-10). The buffers used for the activity assay were: FAPα - 50 mM Tris, 1 M NaCl, 1 mg/mL BSA, pH 7.5, PREP- 25 mM Tris, 250 mM NaCl, 2.5 mM DTT, pH 7.5 (DTT was freshly added immediately before use), DPP9- 25 mM Tris, pH 7.5, DPP4- 25 mM Tris, pH
(§3) 7.5. The following commercial substrates were used: zGP-AMC (Bachem,Catalog No.: […]
(§4) conducted in Greiner Bio-One black microplates of 384 wells and polystyrene F-bottom (Catalog No.: 784076). All compounds were dissolved in DMSO at a concentration of 10 mM and then diluted into the respective buffer to the desired final concentration. The protease was added to the specified concentration before the fluorescence measurements. For fluorescence measurements, 2 μL of substrate was further diluted into 6 μL of buffer, followed by addition of 2 μL of enzyme in buffer. For no enzyme controls 2 μL of substrate was diluted into 8 μL of buffer.
(§5) The fluorescence was measured using a Cytation 3 plate reader (BioTek). All experiments have at least three technical replicates. All assays were conducted at 37°C for a minimum of 90 min, unless otherwise noted. Fluorescence measurements were performed at ex/em, 355/460 nm for ACC substrates. The substrates velocity was quantified by calculating the slope of the linear phase of the reaction as relative fluorescence units (RFU) per min.
(§6) Kinetic evaluation of substrates
(§7) To order to determine the kcat/KM, the previously indicated proteases were tested under their corresponding buffer conditions. Substrates were serially diluted in water, and 2 µL of each dilution was added to 6 µL of assay buffer in a 384-well plate. The plate was briefly centrifuged to ensure proper mixing and to eliminate air bubbles. Fluorescence measurements were initiated by adding 2 µL of the protease solution (prepared in activity buffer) to each well, yielding a final volume of 10 µL. Reactions were monitored at 37 °C for 60 minutes using a plate reader set to excitation/emission wavelengths of 355/460 nm. Control wells without enzyme contained 8 µL of assay buffer, instead of enzyme, and 2 µL of substrate. All measurements were performed in at least triplicate. The initial linear portion of each fluorescence progress curve was used to calculate initial reaction velocities (RFU/min). Calibration curves using free AMC were generated under the corresponding buffer and assay conditions to allow extrapolation of RFU values to µM concentrations. Michaelis-Menten kinetic parameters K M, kcat and kcat/,KM were determined using GraphPad Prism version 10.4.1. In some cases, KM, kcat or kcat/,KM values could not be reliably determined due to poor model fit. […]

Recombinant Human DPP4 = target: T2, Recombinant Human DPP4 (Homo sapiens, UniProt P27487); assay: Kinetic evaluation of substrates; type: biochemical; details: for SI (selectivity index, coefficient of the proteases kcat/Km), FAPα vs DPP4: kcat/KM FAPα over kcat/KM DPP4
T2 construct: purchased Sino Biological 10688-HNCH-10
T2 sequence (P27487 whole entry): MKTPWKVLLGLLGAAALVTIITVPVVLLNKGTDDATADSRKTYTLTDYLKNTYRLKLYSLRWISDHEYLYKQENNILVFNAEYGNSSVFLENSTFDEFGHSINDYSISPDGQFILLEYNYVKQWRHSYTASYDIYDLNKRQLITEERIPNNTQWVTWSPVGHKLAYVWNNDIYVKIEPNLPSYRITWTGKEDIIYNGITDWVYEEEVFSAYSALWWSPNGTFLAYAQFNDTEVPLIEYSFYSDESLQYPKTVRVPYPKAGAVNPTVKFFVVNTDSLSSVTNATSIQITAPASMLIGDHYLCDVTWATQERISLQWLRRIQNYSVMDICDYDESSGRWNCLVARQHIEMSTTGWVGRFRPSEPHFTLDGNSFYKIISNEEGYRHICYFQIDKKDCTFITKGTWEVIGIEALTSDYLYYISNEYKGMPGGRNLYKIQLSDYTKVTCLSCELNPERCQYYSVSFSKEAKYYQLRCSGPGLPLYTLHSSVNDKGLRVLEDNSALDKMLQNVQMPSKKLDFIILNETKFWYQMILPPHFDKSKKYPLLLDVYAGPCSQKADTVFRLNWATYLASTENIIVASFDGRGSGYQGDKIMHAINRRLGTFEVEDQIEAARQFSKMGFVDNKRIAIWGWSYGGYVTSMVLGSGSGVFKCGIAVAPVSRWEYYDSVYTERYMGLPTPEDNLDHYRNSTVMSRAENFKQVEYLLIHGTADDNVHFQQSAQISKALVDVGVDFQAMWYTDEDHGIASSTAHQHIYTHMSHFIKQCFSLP
Method: as §1, §2, §3, §4, §5, §6
as §7, with “using” for “using GraphPad Prism version 10.4.1. In some cases, KM, kcat or kcat/,KM values could not be reliably determined due to poor model fit.”
GraphPad Prism version 10.4.1. […]
determined due to poor model fit. […]

[1] = 3 nM DPP4, 37 °C, 60 min, Michaelis-Menten fit, triplicates
[2] = 3 nM DPP4, 37 °C, 60 min, Michaelis-Menten fit, triplicates, ± SD
[3] = 6 nM DPP9, 37 °C, 60 min, Michaelis-Menten fit, triplicates

Row | Km (Recombinant Human DPP9; 6 nM DPP9, 25 mM Tris, pH 7.5, 37 °C, 60 min, Michaelis-Menten fit, triplicates, ± SD) [µM] | kcat (Recombinant Human DPP9; [3]) [s⁻¹] | kcat/KM (Recombinant Human DPP9; [3]) [M⁻¹ s⁻¹] | SI (selectivity index, coefficient of the proteases kcat/Km), DPP4 vs DPP9 (Recombinant Human DPP9; kcat/KM DPP4 over kcat/KM DPP9) | Km (Recombinant Human DPP4; 3 nM DPP4, 25 mM Tris, pH 7.5, 37 °C, 60 min, ex/em 355/460 nm, Michaelis-Menten fit, triplicates, ± SD) [µM] | Structure (SMILES) | SI (selectivity index, coefficient of the proteases kcat/Km), FAPα vs DPP9 (Recombinant Human DPP9) | kcat/KM (Recombinant Human DPP4; [1]) [M⁻¹ s⁻¹] | kcat (Recombinant Human DPP4; [2]) [s⁻¹] | SI (selectivity index, coefficient of the proteases kcat/Km), FAPα vs DPP4 (Recombinant Human DPP4)
1 | – | – | – | – | – | CC(C)[C@@H]1NC(=O)[C@@H](N)CSCc2cc(n(CC(=O)N3CCC[C@H]3C(=O)Nc3ccc4c(CC(N)=O)cc(=O)oc4c3)n2)CSC[C@@H](C(=O)NCC(N)=O)NC(=O)[C@H](CC(=O)O)NC(=O)[C@H](C)NC(=O)[C@H](CC(N)=O)NC(=O)[C@H](CCC(N)=O)NC(=O)[C@H](Cc2ccccc2)NC(=O)[C@H](CO)NC1=O [FAP-33.2A6] (H-CVSFQNADCG-NH2; linker 1-9 via X1; N-terminus assumed) | FAPα >>>DPP9 | 5168 | 0.460 ± 0.018 | 6
2 | – | – | – | – | – | CC(C)C[C@@H]1NC(=O)[C@H](CC(N)=O)NC(=O)[C@H](CCC(N)=O)NC(=O)[C@H](Cc2ccccc2)NC(=O)[C@H](CO)NC(=O)[C@H](C(C)C)NC(=O)[C@@H](N)CSCc2cc(nn2CC(=O)N2CCC[C@H]2C(=O)Nc2ccc3c(CC(N)=O)cc(=O)oc3c2)CSC[C@@H](C(=O)NCC(N)=O)NC(=O)[C@H](CC(=O)O)NC1=O [FAP-33.2] (H-CVSFQNLDCG-NH2; linker 1-9 via X2; N-terminus assumed) | FAPα >>>DPP9 | – | – | FAPα >>>DPP4
3 | 61 ± 11 | 0.21 | 3455 | 110 | 52 ± 4 | Cc1cc(=O)oc2cc(NC(=O)[C@@H]3CCCN3C(=O)CN)ccc12 [GP-AMC] (H-Gly-Pro-{AMC}) | – | 380000 | 19.9 ± 0.6 | –
